# Data from patent US20030129629A1, “Methods and compositions for the identification, assessment, prevention, and therapy of human cancers” (Millennium Pharmaceuticals, Inc., priority 2000, published 2003).
# Where two headings read alike, the source gives them in different places.
# Legend:
# [1] = system: 60 cancer cell lines (NCI 60 cancer cell line series); conditions: cited from earlier work
# [2] = system: 60 cancer cell lines (NCI 60 cancer cell line series); assay: NCI-DTP in vitro cancer screen, sulforhodamine B (SRB) growth inhibition, 48 hour exposure; type: cell-based, human
# Outline: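 NCI-DTP panel of 60 cancer cell lines plated day 0 at line-specific densities, exposed from day 1 to compound at 5 ten-fold-spaced doses in duplicate wells. After 48 h, cell mass stained with sulforhodamine B; −log GI50 derived from dose–response curves, averaged, and classed Low, Medium or High sensitivity.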
smiles,measurement,setting,value
COc1cccc2c1C(=O)c1c(O)c3c(c(O)c1C2=O)C[C@@](O)(C(=O)CO)C[C@@H]3O[C@H]1C[C@H](N)[C@H](O)[C@H](C)O1 [Adriamycin],−Log (GI50),[1]; Melanoma SK-MEL-2 CL10005,6.6
same,−Log (GI50),[1]; Melanoma SK-MEL-28 CL10008,6.5
same,−Log (GI50),[1]; NSCLC NCI-H226 CL1013,7.2
same,"classification of cell line as Low(1), Medium(2), High(3) sensitivity to compound",[2]; Breast BT-549 CL5013,2
same,"classification of cell line as Low(1), Medium(2), High(3) sensitivity to compound",[2]; Breast HS-578T CL5006,2
same,"classification of cell line as Low(1), Medium(2), High(3) sensitivity to compound",[2]; Breast MCF7(I) CL5001,3
same,"classification of cell line as Low(1), Medium(2), High(3) sensitivity to compound",[2]; Breast MCF7/ADRr CL5002,1
same,"classification of cell line as Low(1), Medium(2), High(3) sensitivity to compound",[2]; Breast MDA-MB-231 CL5005,2
same,"classification of cell line as Low(1), Medium(2), High(3) sensitivity to compound",[2]; Breast MDA-MB-435 CL5011,2
same,"classification of cell line as Low(1), Medium(2), High(3) sensitivity to compound",[2]; Breast MDA-N CL5012,2
same,"classification of cell line as Low(1), Medium(2), High(3) sensitivity to compound",[2]; Breast T-47D CL5014,2
same,"classification of cell line as Low(1), Medium(2), High(3) sensitivity to compound",[2]; CNS SF-268 CL12014,2
same,"classification of cell line as Low(1), Medium(2), High(3) sensitivity to compound",[2]; CNS SF-295 CL12015,2
same,"classification of cell line as Low(1), Medium(2), High(3) sensitivity to compound",[2]; CNS SF-539 CL12016,2
same,"classification of cell line as Low(1), Medium(2), High(3) sensitivity to compound",[2]; CNS SNB-19 CL12002,2
same,"classification of cell line as Low(1), Medium(2), High(3) sensitivity to compound",[2]; CNS SNB-75(I) CL12005,2
same,"classification of cell line as Low(1), Medium(2), High(3) sensitivity to compound",[2]; CNS U251(I) CL12009,2
same,"classification of cell line as Low(1), Medium(2), High(3) sensitivity to compound",[2]; Colon COLO-250 CL4010,2
same,"classification of cell line as Low(1), Medium(2), High(3) sensitivity to compound",[2]; Colon HCC-2998 CL4002,2
same,"classification of cell line as Low(1), Medium(2), High(3) sensitivity to compound",[2]; Colon HCT-15 CL4015,1
same,"classification of cell line as Low(1), Medium(2), High(3) sensitivity to compound",[2]; Colon HCT-116 CL4003,2
same,"classification of cell line as Low(1), Medium(2), High(3) sensitivity to compound",[2]; Colon HT29(I) CL4001,2
same,"classification of cell line as Low(1), Medium(2), High(3) sensitivity to compound",[2]; Colon KM12 CL4017,2
same,"classification of cell line as Low(1), Medium(2), High(3) sensitivity to compound",[2]; Colon SW-620 CL4009,2
same,"classification of cell line as Low(1), Medium(2), High(3) sensitivity to compound",[2]; Leukemia CCRF-CEM(I) CL7003,3
same,"classification of cell line as Low(1), Medium(2), High(3) sensitivity to compound",[2]; Leukemia HL-60(I) CL7008,2
same,"classification of cell line as Low(1), Medium(2), High(3) sensitivity to compound",[2]; Leukemia K562(I) CL7005,2
same,"classification of cell line as Low(1), Medium(2), High(3) sensitivity to compound",[2]; Leukemia MOLT-4 CL7006,3
same,"classification of cell line as Low(1), Medium(2), High(3) sensitivity to compound",[2]; Leukemia RPMI-8226(I) CL7010,2
same,"classification of cell line as Low(1), Medium(2), High(3) sensitivity to compound",[2]; Leukemia SR CL7019,3
same,"classification of cell line as Low(1), Medium(2), High(3) sensitivity to compound",[2]; Melanoma LOX IMVI CL10001,2
same,"classification of cell line as Low(1), Medium(2), High(3) sensitivity to compound",[2]; Melanoma M14 CL10014,2
same,"classification of cell line as Low(1), Medium(2), High(3) sensitivity to compound",[2]; Melanoma MALME-3M CL10002,2
same,"classification of cell line as Low(1), Medium(2), High(3) sensitivity to compound",[2]; Melanoma SK-MEL-2 CL10005,2
same,"classification of cell line as Low(1), Medium(2), High(3) sensitivity to compound",[2]; Melanoma SK-MEL-28 CL10008,2
same,sensitivity classification Low(1)/Medium(2)/High(3),[2]; NSCLC NCI-H23(I) CL1001,2
same,sensitivity classification Low(1)/Medium(2)/High(3),[2]; NSCLC NCI-H332M CL1017,1
same,sensitivity classification Low(1)/Medium(2)/High(3),[2]; NSCLC NCI-H460 CL1021,3
same,sensitivity classification Low(1)/Medium(2)/High(3),[2]; NSCLC NCI-H522 CL1003,2
same,sensitivity classification Low(1)/Medium(2)/High(3),[2]; Ovarian IGROV1 CL6010,2
same,sensitivity classification Low(1)/Medium(2)/High(3),[2]; Ovarian OVCAR-3 CL6001,2
same,sensitivity classification Low(1)/Medium(2)/High(3),[2]; Ovarian OVCAR-4 CL6002,1
same,sensitivity classification Low(1)/Medium(2)/High(3),[2]; Ovarian OVCAR-5 CL6003,1
same,sensitivity classification Low(1)/Medium(2)/High(3),[2]; Ovarian OVCAR-8 CL6005,2
same,sensitivity classification Low(1)/Medium(2)/High(3),[2]; Ovarian SK-OV-3 CL6011,2
same,sensitivity classification Low(1)/Medium(2)/High(3),[2]; Prostate DU-145 CL11003,2
same,sensitivity classification Low(1)/Medium(2)/High(3),[2]; Prostate PC-3(I) CL11001,2
same,sensitivity classification Low(1)/Medium(2)/High(3),[2]; Renal 786-0 CL9018,2
same,sensitivity classification Low(1)/Medium(2)/High(3),[2]; Renal A498 CL9013,2
same,sensitivity classification Low(1)/Medium(2)/High(3),[2]; Renal ACHN CL9023,2
same,sensitivity classification Low(1)/Medium(2)/High(3),[2]; Renal CAKI-1 CL9015,2
same,sensitivity classification Low(1)/Medium(2)/High(3),[2]; Renal RXF-393 CL9016,2
same,sensitivity classification Low(1)/Medium(2)/High(3),[2]; Renal SN12C CL9008,2
same,sensitivity classification Low(1)/Medium(2)/High(3),[2]; Renal TK10 CL9024,2
same,sensitivity classification Low(1)/Medium(2)/High(3),[2]; Renal UO-31 CL9004,1
